The values that follow come from PubChem BioAssay (NCI).

Holding throughout (experiment): inhibition of tumour cell growth, NCI panel, 48 h
The subject of assay [1] is A498 renal.
The subject of assay [2] is ACHN renal.
The subject of assay [3] is KM12 colon.
Assay [4] concerns CAKI-1 renal.
For assay [5], the system named is HL-60(TB) leukemia.
The test system of assay [6] is SR leukemia.
Assay [7] deals with HCC-2998 colon.
In assay [8] the test system is 786-0 renal.
The test system of assay [9] is LXFL 529 NSCLC.
The subject of assay [10] is MOLT-4 leukemia.
In assay [11] the test system is HCT-15 colon.
Assay [12] relates to OVCAR-4 ovarian.
Assay [13] concerns DMS 114 small cell lung.
For assay [14], the system named is COLO 205 colon.
For assay [15], the system named is M14 melanoma.
In assay [16] the test system is MDA-N.

The structures appear in SMILES notation.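 96-well plates; 48 h exposure; 5 concentrations. Endpoints by linear interpolation between flanking doses. Not reached: highest tested concentration assigned. GI50 is the concentration that inhibits growth by half. TGI: total growth inhibition.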

With `O=S1(=O)NNC(=NCc2ccc(Cl)c(Cl)c2)c2ccccc21`, the TGI in assay [1] was > 100 µM; in assay [2], > 100 µM; in assay [3], > 100 µM; in assay [4], > 100 µM; in assay [5], > 100 µM; in assay [6] it was 47.1 µM. Also, the TGI in [7] was > 100 µM; in assay [8], > 100 µM; in assay [9], > 100 µM; in assay [10], 98.8 µM; in assay [11], > 100 µM; in assay [12] it was > 100 µM. The TGI in assay [13], in assay [14] and in assay [15] was > 100 µM each time.

As to `O=C(C/C(=N\NC(=O)C[n+]1ccccc1)C(=O)Nc1nc2ccc([N+](=O)[O-])cc2s1)CC(c1ccccc1)c1c(O)c2ccccc2oc1=O` (stereo not drawn), the TGI in assay [1], in assay [2], in assay [3], in [4], in assay [5] and in [6] was > 100 µM throughout. Besides, the TGI in assay [7], in assay [8], in assay [10], in assay [12], in assay [13] and in [14] was > 100 µM each time. Besides, in [15], the TGI is > 100 µM.

For `CC12CCC([C@H](N3CCOCC3)/C1=N\OCCN1CCCC1)C2(C)C` (stereo partly drawn), the TGI in assay [1], in [2], in assay [3], in [4], in assay [5] and in [6] was > 100 µM each time. Besides, the TGI in assay [7], in assay [8], in [9], in assay [10], in assay [11] and in assay [12] was > 100 µM in each case. Also, the TGI in assay [13], in assay [14] and in assay [15] was > 100 µM throughout.

Take `COc1ccc(-c2cnoc2-c2ccc(OC)c(OC)c2)cc1OC`: the TGI is 21.2 µM in assay [1]; > 74.2 µM in assay [2]; 16.9 µM in [3]; > 68.1 µM in assay [4]; 2.88 µM in assay [5]; 6.9 µM in assay [8]. Moreover, the TGI is > 100 µM in assay [9]; 35.9 µM in [10]; 9.01 µM in assay [11]; > 100 µM in assay [12]; 2.23 µM in assay [13]; 3.86 µM in [14]. The TGI in assay [15] stood at 5.39 µM.

Regarding `C=C[C@@]1(C)CCC2(O)C(CCC3C2(C)CCC[C@@]3(C)COC(=O)CC(=O)OC)C1` (stereo partly drawn), the TGI in assay [2] is > 100 µM; in [3] it was 32.6 µM; in assay [4], > 100 µM; in assay [5] it was 52.6 µM; in assay [6], 43.9 µM; in assay [7], > 100 µM. For the same compound, the TGI was > 100 µM in [8]; 33 µM in assay [9]; 36 µM in assay [10]; 34.9 µM in assay [11]; 33.3 µM in [12]; 32.7 µM in assay [15].

Turning to `O=C(O)c1c[nH]c2c(=O)[nH]cnc12`, the TGI in assay [2], in [3], in [4], in assay [5], in [6] and in assay [7] was > 100 µM in each case. In addition, the TGI in assay [8], in [9], in assay [10], in assay [11], in [13] and in assay [14] was > 100 µM in each case. In [15], the TGI was > 100 µM.

Turning to `CNC(C)Cc1ccccc1O` (stereo not drawn), the TGI in assay [1], in assay [2], in [3], in [4], in [5] and in [6] was > 100 µM each time. For the same compound, the TGI in assay [7], in assay [8], in [9], in [10], in assay [11] and in assay [12] was > 100 µM in each case. For the same compound, the TGI in assay [13], in assay [14] and in assay [15] was > 100 µM each time.

On to `O=C1CSC(/C(=C/c2ccccc2)c2nc3ccccc3[nH]2)=N1`, for which the TGI in [1], in assay [2], in [3], in assay [4], in assay [5] and in assay [6] was > 100 µM each time. Also, the TGI in [7], in assay [8], in [9], in [10], in assay [11] and in [12] was > 100 µM throughout. The TGI in assay [13], in assay [14] and in assay [15] was > 100 µM in each case.

With `C=CCC1C(=O)C(C(=O)OC)N2CCc3c([nH]c4ccccc34)C12` (stereo not drawn), the TGI in assay [1], in assay [3], in assay [4], in [5], in assay [6] and in [7] was > 100 µM throughout. Besides, the TGI in assay [8], in assay [9], in assay [10], in assay [11], in assay [12] and in assay [13] was > 100 µM each time. The TGI in assay [14] and in assay [15] was > 100 µM in each case.

With `COC(=O)C1CC(=O)CCC1c1ccccc1` (stereo not drawn), the TGI in [1], in assay [2], in [3], in [4], in [5] and in [6] was > 100 µM each time. Moreover, the TGI in assay [7], in [8], in assay [9], in assay [10], in assay [11] and in assay [12] was > 100 µM in each case. Further, the TGI in [13], in [14] and in [15] was > 100 µM throughout.

In the case of `C#CCSc1nc(N)c2ncn(C3OC(CO)C(O)C3O)c2n1` (stereo not drawn), the TGI in [1], in assay [2], in [3], in assay [5], in assay [6] and in assay [7] was > 100 µM throughout. Further, the TGI in assay [8], in [9], in assay [10], in assay [11], in assay [12] and in assay [13] was > 100 µM in each case. Moreover, the TGI in [14] is > 100 µM.

Consider `O=C(CC(=O)C(=O)Nc1ccccc1)CC(c1ccccc1)c1c(O)c2ccccc2oc1=O` (stereo not drawn), for which the TGI in assay [1], in assay [2], in [3], in [4], in [5] and in assay [7] was > 100 µM each time. The TGI in assay [8], in assay [10], in [11], in assay [13], in assay [14] and in [15] was > 100 µM throughout.

Take `CCCCCCCC(=O)OC[C@@H](C[As](=O)(O)O)OC(=O)CCCCCCC`: the TGI in assay [1] was found to be 24 µM; in assay [2], 25.6 µM; in assay [5], 21.7 µM; in assay [6] it was 40.5 µM; in assay [7], 29.2 µM; in assay [8], 24.7 µM. Also, the TGI in assay [9] was 25.3 µM; in [10], 18.6 µM; in assay [11] it was 22.4 µM; in assay [12] it was 28.9 µM; in assay [13], 22.3 µM; in assay [14], 34.3 µM. Further, the TGI in assay [15] turned out to be 29.6 µM.

Take `CC1=CCC2(C#N)CCC1C2O` (stereo not drawn): the TGI in [1], in [2], in [3], in assay [4], in assay [5] and in assay [6] was > 100 µM throughout. Further, the TGI in [7], in [8], in assay [9], in assay [10], in assay [11] and in assay [12] was > 100 µM throughout. Besides, the TGI in [13], in assay [14] and in [15] was > 100 µM in each case.

For the compound `C#CCn1c(=O)ccn(/C(=C\C(=O)OCC)C(=O)OCC)c1=O`, the TGI in assay [1] is 36 µM; in assay [2], 3.08 µM; in [3], 48.8 µM; in assay [4], 2.4 µM; in assay [5] it was > 100 µM; in [6] it was > 43.5 µM. Also, the TGI is 35.9 µM in [7]; 6.05 µM in assay [8]; > 27.7 µM in [10]; 6.63 µM in [11]; 7.3 µM in assay [12]; 35.1 µM in assay [16]. For the same compound, the TGI is 3.17 µM in assay [14] and 10.3 µM in assay [15]. Further, the GI50 in [14] was 1530 nM.
